pIC50, pKi: −log10 of the molar value. Activity calls are given as the source filed them. The rule behind the calls is not given here.
Assays:
Acetylcholinesterase [1] = molecular target: T1, Acetylcholinesterase (Electrophorus electricus, UniProt O42275); test: Mixed type inhibition of electric eel AChE using acetylthiocholine as substrate by Lineweaver-Burk plot analysis
SH-SY5Y [2] = test: Neuroprotective activity in rotenone/oligomycin-induced cell death in human SH-SY5Y cells assessed as LDH release at 1 uM pretreated for 1 hr before rotenone/oligomycin challenge measured after 24 hrs by spectrophotometric method (reference value: 13 %); type: functional
SH-SY5Y [3] = test: Neuroprotective activity in okadaic acid-induced cell death in human SH-SY5Y cells at 1 uM after 24 hrs by MTT method; type: functional, cell-based
Acetylcholinesterase [4] = molecular target: T1, Acetylcholinesterase
Description: Inhibition of electric eel AChE preincubated for 10 mins measured after 15 mins by Ellman's method

Cholinesterase = Cholinesterase (Equus caballus, UniProt P81908)
Sequence of Cholinesterase (P81908 whole entry): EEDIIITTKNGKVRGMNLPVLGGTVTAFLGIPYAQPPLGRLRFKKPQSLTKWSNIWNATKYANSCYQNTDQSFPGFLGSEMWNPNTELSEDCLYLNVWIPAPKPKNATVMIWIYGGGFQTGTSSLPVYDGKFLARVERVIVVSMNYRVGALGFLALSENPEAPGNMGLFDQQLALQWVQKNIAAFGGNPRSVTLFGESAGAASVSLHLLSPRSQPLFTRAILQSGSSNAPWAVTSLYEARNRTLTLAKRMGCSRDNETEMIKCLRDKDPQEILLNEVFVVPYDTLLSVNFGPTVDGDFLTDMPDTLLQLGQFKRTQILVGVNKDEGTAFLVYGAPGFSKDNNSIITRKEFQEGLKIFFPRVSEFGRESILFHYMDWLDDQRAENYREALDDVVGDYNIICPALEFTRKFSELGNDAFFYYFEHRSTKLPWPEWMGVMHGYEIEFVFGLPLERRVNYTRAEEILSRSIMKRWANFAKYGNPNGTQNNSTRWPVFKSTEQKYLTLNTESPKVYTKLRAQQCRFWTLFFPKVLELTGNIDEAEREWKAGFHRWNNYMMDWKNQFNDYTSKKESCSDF
Description: Inhibition of Equus caballus BChE preincubated for 10 mins measured after 15 mins by Ellman's method

SH-SY5Y [5] = test: Neuroprotective activity in rotenone/oligomycin-induced cell death in human SH-SY5Y cells assessed as LDH release at 10 nM pretreated for 1 hr before rotenone/oligomycin challenge measured after 24 hrs by spectrophotometric method (reference value: 13 %); type: functional

T1 sequence (O42275 whole entry): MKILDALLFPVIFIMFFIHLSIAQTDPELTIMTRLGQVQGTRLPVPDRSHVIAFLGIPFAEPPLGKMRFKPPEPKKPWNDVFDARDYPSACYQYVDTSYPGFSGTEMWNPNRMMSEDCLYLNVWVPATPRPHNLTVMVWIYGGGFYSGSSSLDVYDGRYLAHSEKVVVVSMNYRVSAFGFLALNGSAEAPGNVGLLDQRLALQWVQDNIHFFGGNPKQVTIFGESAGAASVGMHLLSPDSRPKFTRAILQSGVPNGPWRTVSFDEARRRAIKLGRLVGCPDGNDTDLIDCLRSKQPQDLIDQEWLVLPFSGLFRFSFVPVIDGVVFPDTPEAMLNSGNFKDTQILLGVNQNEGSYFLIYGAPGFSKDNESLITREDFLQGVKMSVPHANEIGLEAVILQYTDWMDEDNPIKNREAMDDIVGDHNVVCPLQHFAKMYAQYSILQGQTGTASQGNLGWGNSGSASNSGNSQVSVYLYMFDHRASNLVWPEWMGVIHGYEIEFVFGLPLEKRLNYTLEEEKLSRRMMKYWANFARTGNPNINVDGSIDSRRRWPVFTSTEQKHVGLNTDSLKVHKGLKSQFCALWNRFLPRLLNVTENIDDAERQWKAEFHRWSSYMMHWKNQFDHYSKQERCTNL

CC(=O)Nc1nn(C)c2nc3nc4c(c(N)c3cc12)CCCC4
pKi (Acetylcholinesterase [1]): 6.81 | Activity (SH-SY5Y [2]): 48% | Activity (SH-SY5Y [3]): inactive | pIC50 (Acetylcholinesterase [4]): 7.16 | pIC50 (Cholinesterase): 5.20

CC(=O)Nc1nn(C)c2nc3nc4c(c(N)c3c(-c3ccccc3)c12)CCCC4
pIC50 (Acetylcholinesterase [4]): 6.64 | pIC50 (Cholinesterase): 5.05

COc1ccc2[nH]cc(CCNC(C)=O)c2c1 [MELATONIN]
Activity (SH-SY5Y [5]): 48%

Cn1nc2nc3c(c(N)c2c1C#N)CCCC3
pIC50 (Acetylcholinesterase [4]): 6.24 | pIC50 (Cholinesterase): 4.00

Cn1nc2nc3c(c(N)c2c1C(N)=O)CCCC3
pIC50 (Acetylcholinesterase [4]): 6.22 | pIC50 (Cholinesterase): 5.27

Cn1nc(C(N)=O)c2c(NCCCCCCOc3ccccc3)c3c(nc21)CCCC3
pIC50 (Acetylcholinesterase [4]): 5.03 | pIC50 (Cholinesterase): < 4.00

Cn1nc(C#N)c2c(N)c3c(nc21)CCCC3
pIC50 (Acetylcholinesterase [4]): 5.77 | pIC50 (Cholinesterase): 5.20

From ChEMBL document CHEMBL2034963, “Synthesis and pharmacological assessment of diversely substituted pyrazolo[3,4-b]quinoline, and benzo[b]pyrazolo[4,3-g][1,8]naphthyridine derivatives” (Eur J Med Chem, 2011)
